Usually zone of inhibition stands for the extent of the growth-free halo in a diffusion test. Low values mean little suppression of growth, high ones wide suppression of growth.

What all share (format): cell-based
One assay deals with Pseudomonas aeruginosa. Description: agar plate disc-diffusion, inhibition zone. The note with it: Gram negative; for zone of inhibition at 10000 ppm: A = concentration of comp. = 10,000 ppm; for zone of inhibition at 30000 ppm: B = concentration of comp. = 30000 ppm; for zone of inhibition at 50000 ppm: C = concentration of comp. = 50,000 ppm. The protocol: (§1) The antimicrobial properties of the synthesized compound was studied by the method of agar plate disc-diffusion. Sterilized filter papers (6 mm in diameter) were wetted with 10 μL of a solution of 1-cyclopropyl-6-fluoro-4-oxo-7-(4-((2-thioxobenzo[d]thiazol-3(2H)-yl)methyl)piperazin-1-yl)-1,4-dihydroquinoline-3-carboxylic acid (4) to be tested, containing 10 mg/mL in DMSO and the discs were allowed to air dry. The discs were then placed onto the surface of agar plates (nutrient agar for bacteria) seeded with the test organism. Each plate contained 15 mL of the agar medium, previously seeded with 0.2 mL of the broth culture of each organism pregrown for 18 h. The inhibition zones were measured in […]. Discs impregnated with DMSO were used as a control, and its inhibition zone was subtracted from the tested compound actual inhibition zone.

Another assay deals with Bacillus Cereus. Kind of assay: agar plate disc-diffusion, inhibition zone. The note with it: Gram positive; for zone of inhibition at 10000 ppm: A = concentration of comp. = 10,000 ppm; for zone of inhibition at 30000 ppm: B = concentration of comp. = 30000 ppm; for zone of inhibition at 50000 ppm: C = concentration of comp. = 50,000 ppm. On the procedure:
as §1
(In general: Agar diffusion results depend on both activity and mobility in agar.)

Another assay concerns Staphylococcus aureus. Description: agar plate disc-diffusion, inhibition zone. Conditions: Gram positive; for zone of inhibition at 10000 ppm: A = concentration of comp. = 10,000 ppm; for zone of inhibition at 30000 ppm: B = concentration of comp. = 30000 ppm; for zone of inhibition at 50000 ppm: C = concentration of comp. = 50,000 ppm. The protocol:
as §1

The next assay deals with Escherichia coli. Description: agar plate disc-diffusion, inhibition zone. Conditions: Gram negative; for zone of inhibition at 10000 ppm: A = concentration of comp. = 10,000 ppm; for zone of inhibition at 30000 ppm: B = concentration of comp. = 30000 ppm; for zone of inhibition at 50000 ppm: C = concentration of comp. = 50,000 ppm. On the procedure:
as §1

The test system of assay [1] is gram positive and gram-negative bacterial strains. Description: antibacterial activity screen, overall statement. Conditions: Bacillus cereus, Staphylococcus aureus, Pseudomonas aeruginosa and Escherichia coli. On the procedure: as §1

Turning to `O=C(O)c1cn(C2CC2)c2cc(N3CCNCC3)c(F)cc2c1=O` [Cip., ciprofloxacin, reference compound], the zone of inhibition at 10000 ppm in the assay on Pseudomonas aeruginosa was 29 mm; in the assay on Bacillus Cereus it was 29 mm; in the assay on Staphylococcus aureus it was 43 mm; in the assay with Escherichia coli it was 30 mm. Besides, the zone of inhibition at 30000 ppm in the assay on Pseudomonas aeruginosa stood at 30 mm; with Bacillus Cereus, 30 mm; in the assay with Staphylococcus aureus, 44 mm; in the assay with Escherichia coli, 39 mm. The zone of inhibition at 50000 ppm with Pseudomonas aeruginosa amounted to 53 mm; in the assay on Bacillus Cereus, 42 mm; in the assay on Staphylococcus aureus, 53 mm; with Escherichia coli it was 60 mm.

Regarding `O=C(O)c1cn(C2CC2)c2cc(N3CCN(Cn4c(=S)sc5ccccc54)CC3)c(F)cc2c1=O` [Compound 4, 1-cyclopropyl-6-fluoro-4-oxo-7-(4-((2-thioxobenzo[d]thiazol-3(2H)-yl)methyl)piperazin-1-yl)-1,4-dihydroquinoline-3-carboxylic acid], the “antibacterial activities (in words)” value in assay [1] is given as “good antibacterial activities”. Besides, the zone of inhibition at 10000 ppm was 24 mm with Pseudomonas aeruginosa, 35 mm with Bacillus Cereus, 10 mm in the assay with Staphylococcus aureus and 39 mm in the assay with Escherichia coli. Further, the zone of inhibition at 30000 ppm in the assay on Pseudomonas aeruginosa came out at 31 mm; in the assay with Bacillus Cereus, 39 mm; with Staphylococcus aureus, 17 mm; with Escherichia coli it was 44 mm. The zone of inhibition at 50000 ppm in the assay on Pseudomonas aeruginosa was 39 mm; in the assay with Bacillus Cereus it was 44 mm; in the assay with Staphylococcus aureus, 22 mm; in the assay with Escherichia coli, 49 mm.

For the origin of these results see patent US11884658B1, “1-cyclopropyl-6-fluoro-4-oxo-7-(4-((2-thioxobenzo[d]thiazol-3(2H)-yl)methyl)piperazin-1-yl)-1,4-dihydroquinoline-3-carboxylic acid as an antimicrobial compound” (KING FAISAL UNIVERSITY, priority 2023, dated 2024).
